A short description of data set [1]: Pharmacokinetic study, single IV and PO administration to ICR mice. It counts as in vivo. As for the experimental part: The pharmacokinetic parameters of Compound P9 of the invention and the representative compounds of WO2017/114510A1 in mice were determined in this Example.
(1) In Vivo Pharmacokinetics Protocol for Single Intravenous (IV) and Oral (PO) Administration to ICR Mice
The concentration during formulation of test substances was calculated on the basis of pure free base.
The test substance was accurately weighed, and added with the excipients (5% DMSO+5% Solutol+90% saline) in the specified amounts. After complete dissolution, the dosing solution for intravenous injection was obtained at the concentration of 0.2 mg/mL.
The test compound was accurately weighed, and added with the excipients (0.4% methylcellulose (viscosity: 400 cps)) in the specified amount. After sufficiently mixing, the dosing solution for oral administration was obtained at the concentration of 1 mg/mL.
Forty male SPF grade ICR mice were purchased from Shanghai Xipuer-Bikai Laboratory Animal Co., Ltd., and 30 normal healthy ICR mice of them passed the physical examination and were used in this study. Animal weight: 20.12-25.56 g.
Blood was collected through the orbit or through cardiac puncture after carbon dioxide (CO2) euthanasia. About 0.20 milliliter (mL) of blood was collected for each sample with heparin sodium as anticoagulant agent. The samples were placed on ice after collection. […]
The biological samples of the test substances were analyzed by LC-MS/MS. […]
The pharmacokinetic parameters were calculated from the blood concentration data of the drug, using WinNonlin 7.0 to provide the parameters such as AUC0-t, AUC0-∞, MRT0-∞, Cmax, Tmax, and T1/2, and the average and standard deviation thereof.
For those samples with concentrations below the lower limit of quantitation, when calculating the pharmacokinetic parameters, samples collected before Cmax should be calculated as zero, and samples collected at the points after Cmax should be calculated as being below the limit of qualitification (BLQ).

Data set [2] in a line: Permeability study, Caco-2 cell in vitro drug absorption model. It counts as in vitro ADME. The following applies: human. As for the experimental part:
The permeability of Compound P9 of the invention and Compound A107 of WO2017/114510A1 was determined using Caco-2 cell in vitro drug absorption model in this Example
• Cell: human intestinal cancer Caco2 (HTB-37, ATCC) • Petri dish: 10 cm petri dish (430167, Corning) • Millicell-24 microplage (PSHT010R5, Millipore) • Buffer: PBS (14190, Invitrogen) • HEPES (H0887, Sigma) • HBSS (H8264, Sigma) • Substances related to cell culture: • high glucose DMEM medium (L0103-500, Biowest) • fetal bovine serum (S1810-500, Biowest) • trypsin (255200-056, Invitrogen) • nonessential amino acid (M7145, Sigma) • penicillin and streptomycin (B-13234, GIBCO) • sodium pyruvate (11360-070, Invitrogen) • L-glutamine (25030-081, Invitrogen) • Relevant reagents: fluorescein (L0144, Sigma) • propranolol (P831800, Sigma) • colchicine (C9754, Sigma) • atenolol (A7655, Sigma) • Instruments: liquid chromatography (Waters Acquity UPLC I-class, Waters) • mass spectrometry (Waters xevo TQ-S MS/MS, Waters) • ohmmeter (Millicell-ERS, Thermo) • microplate reader (Infinite Pro, Tecan) (2). Assay Protocol:
• 1) The Caco-2 cells were revived, and incubated in a 10 cm petri dish in a 5-6% CO2 and 95% RH incubator at 37° C. […] The cells were re-suspended in 6 ml complete medium, and counted three times. • 3) The cells were harvested by centrifugation at 1000 rpm for 5 min, and diluted in suspension. […]

The structures appear in SMILES notation.

As for `Cn1nccc1Nc1cc(-c2cc(F)c3c(c2)CCN3C(=O)Cc2cccnc2Cl)ccn1` [Example P9, 2-(2-chloropyridin-3-yl)-1-(7-fluoro-5-(2-((1-methyl-1H-pyrazol-5-yl)amino)pyridin-4-yl)indolin-1-yl)ethan-1-one], the CLz result in data set [1] is recorded as “CLz/(L/hr/kg): 0.36”. In addition, in data set [1] (po), the F result is “F/(%, po): 60.55” and the nAUC0-t entry is listed as “nAUC0-t/(ng · h/ mL, po): 1696.3”. Further, the efflux ratio at 1.5 h, 20 μm in data set [2] was determined as 1.3. For the same molecule, the Papp A→B at 1.5 h, 20 μm in data set [2] (Papp, Apical to Basal, 20 μm, 1.5 h, read-out: apparent permeability coefficient (Caco-2) From A to B) came out at 23.7 ×10⁻⁶ cm/s.

(Values after patent publication US11465984B2, “Compound having ERK kinase inhibitory activity and use thereof” (SHANGHAI HAIHE PHARMACEUTICAL CO., LTD., priority 2017, dated 2022).)
